Read-outs that look alike come from different tables or passages of the source.
Tests used:
gelatinase B = gelatinase B (Homo sapiens, UniProt P14780); test: biochemical
Description: Pro-gelatinase B was purified from human neutrophils by first separating the neutrophils from human blood by density centrifugation and dextran sedimentation. The separated neutrophils were disrupted by combined treatment with 0.05% Triton X-100® and sonification Cell debris was then removed by high speed centrifugation. […] The gelatinase B was incubated overnight at 37°C with 1mM p-aminophenylmercuric acetate. The inhibitory activity of the present hydroxamine derivatives was determined using the synthetic substrate N-acetyl-Pro-Gln-Gly-Leu-Leu-Gly ethyl ester for this enzyme. The gelatinase was added to a solution of 0.25 mM of substrate in 50mM borate buffer (pH 7.5) containing 1 mM calcium chloride and a known concentration of hydroxylamine derivative. The resulting solution was incubated at 37°C for 16 hours. Enzymic activity was terminated by addition of an equal volume of 2% (w/v) sodium hydrogen carbonate solution in 50% aqueous methanol containing 0.05% (w/v) of picrylsulphonic acid. The solution obtained was incubated at 37°C for a further 1 hour and the reaction was then terminated and stabilized by acidification with 1N hydrochloric acid. The concentration of trinitrophenyl-Leu-Leu-Gly ethyl ester formed was determined by spectrophotometry at 335 nm. The IC50 is that concentration of hydroxylamine derivative which reduces substrate cleavage to 50% of that achieved by the enzyme alone.

Stromelysin [1] = target: T1, Stromelysin (Homo sapiens, UniProt P08254); test: biochemical
T1 sequence (P08254 100-477): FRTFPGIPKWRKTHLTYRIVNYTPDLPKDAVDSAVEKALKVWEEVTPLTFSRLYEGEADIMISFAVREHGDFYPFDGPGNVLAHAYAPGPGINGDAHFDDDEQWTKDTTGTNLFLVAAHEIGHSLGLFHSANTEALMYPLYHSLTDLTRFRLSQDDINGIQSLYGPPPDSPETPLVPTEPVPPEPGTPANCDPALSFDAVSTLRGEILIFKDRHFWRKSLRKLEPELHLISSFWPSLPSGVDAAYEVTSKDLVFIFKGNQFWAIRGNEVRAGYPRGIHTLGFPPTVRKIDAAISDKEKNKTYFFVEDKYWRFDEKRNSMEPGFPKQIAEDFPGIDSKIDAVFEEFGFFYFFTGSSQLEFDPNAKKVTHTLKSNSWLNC
Description: The latent pro-enzyme (30 µg/ml) was activated by incubation with trypsin (0.5 µg/ml) for 30 minutes at 25°C and then the trypsin was inactivated using a twenty-fold excess of trypsin inhibitor. The inhibitory activity of the hydroxamic acid derivatives was determined using the fluorescent peptide substrate (7-methoxycoumarin-4-yl)acetyl-L-prolyl-L-leucyl-L-alanyl-L-[…]-[3-(2,4-dinitrophenyl)-L-2,3-diaminopropyl]-L-arginyl-L-arginine. The stromelysin (final concentration 35 ng/ml) was added to a solution of substrate ([…]) and varying concentrations of hydroxylamine derivative in 50mM Tris HCl buffer, pH 7.5 containing 200 mM Na Cl, 10mM CaCl2, 0.05% Brij 35 and 5% methanol. This solution was incubated for 16 hours at 37°C. Product formation was determined by spectrofluorometry using an excitation wavelength of 325 nm and an emission wavelength of 395 nm. The IC50 is that concentration of hydroxylamine derivative which reduces the substrate cleavage to 50% of that achieved by the enzyme alone.

Stromelysin [2] = target: T1, Stromelysin; test: Stromelysin (Test A), 14C-acetylated b-casein substrate digestion; format: biochemical; conditions: read-out: Test A IC50 (mol)
Description: Prostromelysin was purified from human fibroblast culture medium by prostromelysin antibody affinity chromatography [Ganja-Smith Z, Nagase H, Woessner J F Jr., Biochem J. 1989, vol 285 (1), pp 115-119]. The latent pro-enzyme was activated by incubation with trypsin (5 mg/ml) at 25°C for 2 hours and after this time the trypsin was inactivated using a ten-fold excess of soya bean trypsin inhibitor. The inhibitory activity of the aforementioned hydroxamic acid derivatives was determined using ^14C-acetylated b-casein substrate. The stromelysin (5 nM) was added to a solution of substrate (4 mg/ml) in 25 mM Tris HCl buffer, pH 7.5, containing 10 mM CaCl2 and 0.05% Brij®. The solution obtained was incubated at 37°C for 20 hours. Enzyme digestion of the substrate was terminated by the addition of 45% trichloroacetic acid and the precipitated undigested substrate was pelleted by centrifugation at 10000 g for 0.25 hour. The supernatant was aspired and ^14C activity was determined by liquid scintillation spectrometry. The IC50 is that concentration of hydroxamic acid derivative in the enzyme digestion which reduces the substrate cleavage to 50% of that achieved by the enzyme alone.

[3] = gelatinase B from human neutrophils, 0.25 mM substrate, pH 7.5, 37°C, 16 hours, * = IC50 limited by mutual depletion of the enzyme, read-out: Test C IC50 (mol)

Sequence of gelatinase B (P14780 94-707): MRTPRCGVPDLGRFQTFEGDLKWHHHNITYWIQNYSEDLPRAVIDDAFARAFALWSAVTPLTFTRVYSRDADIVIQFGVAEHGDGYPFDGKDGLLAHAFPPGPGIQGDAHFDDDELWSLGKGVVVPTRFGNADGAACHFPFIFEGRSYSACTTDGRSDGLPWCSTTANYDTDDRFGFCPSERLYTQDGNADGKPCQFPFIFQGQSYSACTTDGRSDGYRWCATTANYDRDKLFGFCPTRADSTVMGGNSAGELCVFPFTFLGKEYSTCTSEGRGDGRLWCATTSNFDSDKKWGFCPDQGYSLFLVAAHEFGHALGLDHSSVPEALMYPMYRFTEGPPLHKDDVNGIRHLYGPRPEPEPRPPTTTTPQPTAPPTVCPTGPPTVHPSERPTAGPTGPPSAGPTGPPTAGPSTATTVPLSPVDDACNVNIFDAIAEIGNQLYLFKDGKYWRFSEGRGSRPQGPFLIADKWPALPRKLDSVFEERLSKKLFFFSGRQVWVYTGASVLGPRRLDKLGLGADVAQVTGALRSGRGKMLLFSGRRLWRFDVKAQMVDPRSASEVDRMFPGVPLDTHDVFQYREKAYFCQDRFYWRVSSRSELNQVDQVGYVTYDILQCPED

CCCCCCCC(CC(=O)NO)C(=O)N[C@@H](CC(C)C)C(=O)N[C@@H](CC(C)C)C(=O)NCC (single isomer, unassigned) [Compound A, [4-(N-Hydroxyamino)-2(R or S)-heptylsuccinyl]-L-leucyl-L-leucine ethylamide]
IC50 (gelatinase B): 0.32 µM
IC50 (Stromelysin [1]): 0.0125 µM
IC50 (Stromelysin [2]): 0.033 µM

CCCCCCCCCC(CC(=O)NO)C(=O)N[C@@H](CC(C)C)C(=O)N[C@@H](CC(C)C)C(=O)NCC (single isomer, unassigned) [Compound B, [4-(N-Hydroxyamino)-2(R or S)-nonylsuccinyl]-L-leucyl-L-leucine ethylamide]
IC50 (gelatinase B): 0.05 µM
IC50 (Stromelysin [1]): 0.0093 µM
IC50 (Stromelysin [2]): 0.026 µM

CCCCCCCC(C(=O)N[C@@H](CC(C)C)C(=O)N[C@@H](CC(C)C)C(=O)NCC)[C@H](C)C(=O)NO (single isomer, unassigned) [Compound C, [4-(N-Hydroxyamino)-2(R or S)-heptyl-3(S)-methylsuccinyl]-L-leucyl-L-leucine ethylamide]
IC50 (Stromelysin [1]): 0.0023 µM
IC50 (Stromelysin [2]): 0.011 µM

CCCCCCC[C@@H](C(=O)N[C@@H](CC(C)C)C(=O)N[C@@H](CC(C)C)C(=O)NCC)C(CN1C(=O)c2ccccc2C1=O)C(=O)NO (single isomer, unassigned) [Compound D, [4-(N-Hydroxyamino)-2(R)-heptyl-3(R or S)-(phthalimidomethyl)succinyl]-L-leucyl-L-leucine ethylamide]
IC50 (Stromelysin [1]): 0.00059 µM
IC50 (Stromelysin [2]): 0.01 µM

CCCCCCC[C@@H](C(=O)N[C@H](C(=O)NC)C(C)(C)C)C(CN1C(=O)c2ccccc2C1=O)C(=O)NO (single isomer, unassigned) [Compound G, [4-(N-Hydroxyamino)-2(R)-heptyl-3(R or S)-(phthalimidomethyl)succinyl]-L-tert-butylglycine methylamide]
IC50 (gelatinase B; [3]): 0.0009 µM
IC50 (Stromelysin [1]; stromelysin 35 ng/ml, fluorescent peptide substrate, pH 7.5, 37°C, 16 hours, * = IC50 limited by mutual depletion of the enzyme, read-out: Test B IC50 (mol)): 0.0012 µM

CCCCCCC[C@@H](C(=O)N[C@@H](CC(C)C)C(=O)N[C@@H](CC(C)C)C(=O)NCC)C(CCCc1ccccc1)C(=O)NO (single isomer, unassigned) [Compound H, [4-(N-Hydroxyamino) 2(R)-heptyl-3(R or S)-(3-phenylpropyl)succinyl]-L-leucyl-L-leucine ethylamide]
IC50 (Stromelysin [1]): 0.00066 µM

CCCCCCCC(CC(=O)NO)C(=O)N[C@@H](Cc1ccccc1)C(=O)NC (stereo partly drawn) [Compound F, [4-(N-Hydroxyamino)-2(RS)-heptylsuccinyl]-L-phenylalanine methylamide]
IC50 (gelatinase B; [3]): 0.0032 µM
IC50 (Stromelysin [1]): 0.022 µM

— EP0575844B1, “Hydroxamic acid derivatives and pharmaceutical compositions thereof” (F. HOFFMANN-LA ROCHE AG, priority 1992, dated 1993)
